Experimental data: patent US10988485B2 (Amgen Inc., priority 2018, dated 2021)

target: GDP-bound KRAS protein (aa 1-169), containing both G12C and C118A amino acid substitutions (Homo sapiens, UniProt P01116, C118A/G12C); test: Coupled Nucleotide Exchange Assay (SOS-mediated nucleotide exchange, AlphaScreen); type: biochemical; settings: compound pre-incubation either 5 min or 2 hours (not stated per compound); SOS and GTP added, cRAF AlphaScreen read-out
Description: For compounds in Table 6, the following assay conditions were employed:
Coupled Nucleotide Exchange Assay: Purified GDP-bound KRAS protein (aa 1-169), containing both G12C and C118A amino acid substitutions and an N-terminal His-tag, was pre-incubated in assay buffer (25 mM HEPES pH 7.4, 10 mM MgCl2, and 0.01% Triton X-100) with a compound dose-response titration for either 5 min or 2 hours (see Table 15). Following compound pre-incubation, purified SOS protein (aa 564-1049) and GTP (Roche 10106399001) were added to the assay wells and incubated for an additional 30 min (for 5 min compound pre-incubation) or 1 hour (for 2 hour compound pre-incubation). To determine the extent of inhibition of SOS-mediated nucleotide exchange, purified GST-tagged cRAF (aa 1-149), nickel chelate AlphaLISA acceptor beads (PerkinElmer AL108R), and AlphaScreen glutathione donor beads (PerkinElmer 6765302) were added to the assay wells and incubated for 10 minutes. The assay plates were then read on a PerkinElmer EnVision Multilabel Reader, using AlphaScreen® technology, and data were analyzed using a 4-parameter logistic model to calculate IC50 values.

Sequence of GDP-bound KRAS protein (aa 1-169), containing both G12C and C118A amino acid substitutions (P01116 1-169 isoform P01116-2 G12C/C118A): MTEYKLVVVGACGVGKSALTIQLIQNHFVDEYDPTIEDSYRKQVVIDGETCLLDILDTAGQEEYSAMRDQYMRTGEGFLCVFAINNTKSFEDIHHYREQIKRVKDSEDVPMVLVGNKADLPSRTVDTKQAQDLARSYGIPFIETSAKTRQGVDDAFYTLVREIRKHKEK

| Compound | IC50 |
| --- | --- |
| C=CC(=O)N1C[C@H](C)N(C2=NS(=O)(=O)Nc3nc(-c4ccccc4F)c(Cl)cc32)C[C@H]1C [Example 7, 1-((2R,5S)-4-(6-Chloro-7-(2-fluorophenyl)-2,2-dioxido-1H-pyrido[2,3-c][1,2,6]thiadiazin-4-yl)-2,5-dimethyl-1-piperazinyl)-2-propen-1-one] | 16.4 µM |
| C=CC(=O)N1C[C@H](C)N(C2=NS(=O)(=O)N(c3ccccc3C(C)(C)C)c3nc(-c4c(N)cccc4F)c(Cl)cc32)C[C@H]1C (single isomer, unassigned) [Example 1-8-2] | 69.3 µM |
| C=CC(=O)N1C[C@H](C)N(C2=NS(=O)(=O)N(c3c(C)ccnc3C(C)C)c3nc(-c4ccccc4C)c(Cl)cc32)C[C@H]1C (single isomer, unassigned) [Example 1-12-2] | 3.55 µM |
| C=CC(=O)N1C[C@H](C)N(C2=NS(=O)(=O)N(c3ccccc3C(C)(C)C)c3nc(-c4c(N)cccc4F)c(Cl)cc32)C[C@H]1C (single isomer, unassigned) [Example 1-8-1] | 0.01 µM |
| C=CC(=O)N1C[C@H](C)N(C2=NS(=O)(=O)N(c3ccccc3C(C)(C)C)c3nc(-c4ccccc4F)c(Cl)cc32)C[C@H]1C [Example 1-1-2, 1-((2R,5S)-4-(6-chloro-7-(2-fluorophenyl)-1-(2-(2-methyl-2-propanyl)phenyl)-2,2-dioxido-1H-pyrido[2,3-c][1,2,6]thiadiazin-4-yl)-2,5-dimethyl-1-piperazinyl)-2-propen-1-one] | 70.8 µM |
| C=CC(=O)N1C[C@H](C)N(C2=NS(=O)(=O)N(c3ccccc3C(C)(C)C)c3nc(-c4ccccc4S(C)(=O)=O)c(Cl)cc32)C[C@H]1C (atropisomer, axis not shown) [Example 1-10-2] | 5.95 µM |
| C=CC(=O)N1C[C@H](C)N(C2=NS(=O)(=O)N(c3c(C)cc(N)nc3C(C)C)c3nc(-c4ccccc4F)c(Cl)cc32)C[C@H]1C (atropisomer, axis not shown) [Example 10, 1-((2R,5S)-4-(1-(6-Amino-4-methyl-2-(2-propanyl)-3-pyridinyl)-6-chloro-7-(2-fluorophenyl)-2,2-dioxido-1H-pyrido[2,3-c][1,2,6]thiadiazin-4-yl)-2,5-dimethyl-1-piperazinyl)-2-propen-1-one] | 1.27 µM |
| C=CC(=O)N1CCN(C2=NS(=O)(=O)N(c3ccccc3C(C)C)c3nc(-c4c(O)cccc4F)c(F)cc32)[C@@H](C)C1 [Example 5, 1-((3S)-4-(6-Fluoro-7-(2-fluoro-6-hydroxyphenyl)-1-(2-isopropylphenyl)-2,2-dioxido-1H-pyrido[2,3-c][1,2,6]thiadiazin-4-yl)-3-methylpiperazin-1-yl)prop-2-en-1-one] | 1.03 µM |
| C=CC(=O)N1C[C@H](C)N(C2=NS(=O)(=O)N(c3c(C)cc(CN(C)C)nc3C(C)C)c3nc(-c4ccccc4F)c(Cl)cc32)C[C@H]1C [Example 4, 1-((2R,5S)-4-(6-Chloro-1-(6-((dimethylamino)methyl)-4-methyl-2-(2-propanyl)-3-pyridinyl)-7-(2-fluorophenyl)-2,2-dioxido-1H-pyrido[2,3-c][1,2,6]thiadiazin-4-yl)-2,5-dimethyl-1-piperazinyl)-2-propen-1-one] | 5.96 µM |
| C=CC(=O)N1C[C@H](C)N(C2=NS(=O)(=O)N(c3ccccc3C(C)(C)C)c3nc(-c4ccccc4F)c(Cl)cc32)C[C@H]1C [Example 1-1-1, 1-((2R,5S)-4-(6-chloro-7-(2-fluorophenyl)-1-(2-(2-methyl-2-propanyl)phenyl)-2,2-dioxido-1H-pyrido[2,3-c][1,2,6]thiadiazin-4-yl)-2,5-dimethyl-1-piperazinyl)-2-propen-1-one] | 0.15 µM |
| C=CC(=O)N1C[C@H](C)N(C2=NS(=O)(=O)N(c3ccccc3C(C)(C)C)c3nc(-c4ccccc4S(C)(=O)=O)c(Cl)cc32)C[C@H]1C (atropisomer, axis not shown) [Example 1-10-1] | 0.08 µM |
| C=CC(=O)N1C[C@H](C)N(C2=NS(=O)(=O)N(c3ccc(CN(C)C)cc3C(C)(C)C)c3nc(-c4ccccc4F)c(Cl)cc32)C[C@H]1C [Example 1-13-1, 1-((2R,5S)-4-(6-chloro-1-(4-((dimethylamino)methyl)-2-(2-methyl-2-propanyl)phenyl)-7-(2-fluorophenyl)-2,2-dioxido-1H-pyrido[2,3-c][1,2,6]thiadiazin-4-yl)-2,5-dimethyl-1-piperazinyl)-2-propen-1-one] | 0.04 µM |
| C=CC(=O)N1C[C@H](C)N(C2=NS(=O)(=O)N(c3c(C)cnn3C(C)C)c3nc(-c4ccccc4F)c(Cl)cc32)C[C@H]1C (single isomer, unassigned) [Example 1-11-1] | 0.54 µM |
| C=CC(=O)N1C[C@H](C)N(C2=NS(=O)(=O)N(c3ccc(CN(C)C)cc3C(C)(C)C)c3nc(-c4ccccc4F)c(Cl)cc32)C[C@H]1C [Example 1-13-2, 1-((2R,5S)-4-(6-chloro-1-(4-((dimethylamino)methyl)-2-(2-methyl-2-propanyl)phenyl)-7-(2-fluorophenyl)-2,2-dioxido-1H-pyrido[2,3-c][1,2,6]thiadiazin-4-yl)-2,5-dimethyl-1-piperazinyl)-2-propen-1-one] | 3.87 µM |

Results, then the molecule that gave them:

| IC50 | Compound |
| --- | --- |
| 2.69 µM | C=CC(=O)N1C[C@H](C)N(C2=NS(=O)(=O)N(c3c(CC)cccc3CC)c3nc(-c4ccccc4F)c(Cl)cc32)C[C@H]1C [Example 1-6, 1-((2R,5S)-4-(6-chloro-1-(2,6-diethylphenyl)-7-(2-fluorophenyl)-2,2-dioxido-1H-pyrido[2,3-c][1,2,6]thiadiazin-4-yl)-2,5-dimethyl-1-piperazinyl)-2-propen-1-one] |
| 0.53 µM | C=CC(=O)N1CCN(C2=NS(=O)(=O)N(c3c(C)ccnc3C(C)C)c3nc(-c4ccccc4F)c(Cl)cc32)[C@@H](C)C1 [Example 2-2, (S)-1-(4-(6-chloro-7-(2-fluorophenyl)-1-(2-isopropyl-4-methylpyridin-3-yl)-2,2-dioxido-1H-pyrido[2,3-c][1,2,6]thiadiazin-4-yl)-3-methylpiperazin-1-yl)prop-2-en-1-one] |
| 3.5 µM | C=CC(=O)N1C[C@H](C)N(C2=NS(=O)(=O)N(c3c(C)cc(N)nc3C(C)C)c3nc(-c4ccccc4F)c(Cl)cc32)C[C@H]1C (atropisomer, axis not shown) [Example 10-1, 1-((2R,5S)-4-(1-(6-amino-4-methyl-2-(2-propanyl)-3-pyridinyl)-6-chloro-7-(2-fluorophenyl)-2,2-dioxido-1H-pyrido[2,3-c][1,2,6]thiadiazin-4-yl)-2,5-dimethyl-1-piperazinyl)-2-propen-1-one] |
| 0.17 µM | C=CC(=O)N1C[C@H](C)N(C2=NS(=O)(=O)N(c3c(N)ncnc3C(C)C)c3nc(-c4ccccc4F)c(Cl)cc32)C[C@H]1C (single isomer, unassigned) [Example 9-1] |
| 0.11 µM | C=CC(=O)N1C[C@H](C)N(C2=NS(=O)(=O)N(c3ccccc3C(C)(C)C)c3nc(-c4ccccc4S(C)(=O)=O)c(Cl)cc32)C[C@H]1C [Example 1-10] |
| 11.2 µM | C=CC(=O)N1C[C@H](C)N(C2=NS(=O)(=O)N(c3c(N)ncnc3C(C)C)c3nc(-c4ccccc4F)c(Cl)cc32)C[C@H]1C (single isomer, unassigned) [Example 9-2] |
| 0.60 µM | C=CC(=O)N1C[C@H](C)N(C2=NS(=O)(=O)N(c3c(C)ccnc3C(C)C)c3nc(-c4ccccc4C)c(Cl)cc32)C[C@H]1C [Example 1-12, 1-((2R,5S)-4-(6-chloro-7-(2-methylphenyl)-1-(4-methyl-2-(2-propanyl)-3-pyridinyl)-2,2-dioxido-1H-pyrido[2,3-c][1,2,6]thiadiazin-4-yl)-2,5-dimethyl-1-piperazinyl)-2-propen-1-one] |
| 1.46 µM | C=CC(=O)N1C[C@H](C)N(C2=NS(=O)(=O)N(c3c(C)cc(CN(C)C)cc3C(C)C)c3nc(-c4c(N)cccc4F)c(Cl)cc32)C[C@H]1C [Example 8-2, 1-((2R,5S)-4-(7-(2-amino-6-fluorophenyl)-6-chloro-1-(4-((dimethylamino)methyl)-2-methyl-6-(2-propanyl)phenyl)-2,2-dioxido-1H-pyrido[2,3-c][1,2,6]thiadiazin-4-yl)-2,5-dimethyl-1-piperazinyl)-2-propen-1-one] |
| 0.39 µM | C=CC(=O)N1C[C@H](C)N(C2=NS(=O)(=O)N(c3c(C)cc(N)nc3C(C)C)c3nc(-c4ccccc4F)c(Cl)cc32)C[C@H]1C (atropisomer, axis not shown) [Example 10-2, 1-((2R,5S)-4-(1-(6-amino-4-methyl-2-(2-propanyl)-3-pyridinyl)-6-chloro-7-(2-fluorophenyl)-2,2-dioxido-1H-pyrido[2,3-c][1,2,6]thiadiazin-4-yl)-2,5-dimethyl-1-piperazinyl)-2-propen-1-one] |
| 0.89 µM | C=CC(=O)N1C[C@H](C)N(C2=NS(=O)(=O)N(c3c(CC)cccc3CC)c3nc(-c4c(N)cccc4F)c(Cl)cc32)C[C@H]1C [Example 1-7, 1-((2R,5S)-4-(7-(2-amino-6-fluorophenyl)-6-chloro-1-(2,6-diethylphenyl)-2,2-dioxido-1H-pyrido[2,3-c][1,2,6]thiadiazin-4-yl)-2,5-dimethyl-1-piperazinyl)-2-propen-1-one] |
